# Measurements: patent publication US20160129044A1, “USE OF MESOTHELIAL CELLS IN TISSUE BIOENGINEERING AND ARTIFICIAL TISSUES” (FUNDACION PÚBLICA ANDALUZA PROGRESO Y SALUD, priority 2013, published 2016)
# System: adipose tissue mesothelial cells (ATMCs)
# Experiment: Epithelial-to-mesenchymal transition (EMT) of cultured adipose tissue mesothelial cells: morphology, α-SMA/F-actin immunofluorescence, Western blot
# Type: cell-based, mouse
# Conditions: hydrocortisone 1 μg/ml; ATMCs cultured 3 days; basal media or 20 ng/ml EGF
# Method: A total number of 3.5×10^5 ATMCs was seeded in each well of a 6 wells culture dishes (140685, Nunclon™ Δ Surface) into 1.5 ml of a culture media that we termed MRPM (Mesothelial Retaining Phenotype Media). […] Dev Dyn 236: 2973-2979) which are components of the fetal bovine serum (FBS). […] Concentration in viable ATMCs was assessed with a Neubaeur haemocytometer by using the trypan blue exclusion test and was adjusted to a final concentration of 1.6×10^6 cells/ml. […] The mesothelial phenotype of ATMCs cultured for 48 hours in MRPM into hydrophilic p-Dish as well as mesothelialized HALC cultures was analyzed with immunofluorescence. […] Fluorescence images were captured with an inverted fluorescence microscope Olympus IX71 as described above. Quantification of α-SMA immunofluorescence expression was performed with the use of the Meta Imaging Software MetaMorph Offline version 7.5.1.0 (MDS Analytical technologies, USA). For each immunofluorescence image, were calculated the average values of specific Hoechst 33342 and Alexa 488 nm fluorescence emitted by the cells. Specific fluorescence was obtained after eliminating the average values of background fluorescence emitted by 3 areas lacking cells. Hoechst 33342 and Alexa 488 nm fluorescence were further divided between each other to obtain a relative index of marker expression (arbitrary units). […]
smiles,measurement,value
"C[C@]12CCC(=O)C=C1CC[C@@H]1[C@@H]2[C@@H](O)C[C@@]2(C)[C@H]1CC[C@]2(O)C(=O)CO [Hydrocortisone, hydrocortisone]","Effect on Serum- and EGF-induced EMT of ATMCs (α-SMA expression, immunofluorescence and Western blot)",inhibits Serum- and EGF-induced EMT
